Consider eight compounds from patent US4889860A (Nova Pharmaceutical Corporation, priority 1987, dated 1989).

The structures appear in SMILES notation. Where two headings read alike, the source gives them in different places.

Data set [1] deals with bombesin-induced scratching. Nature of the data set: bombesin-induced scratching test. The class given is in vivo. To be noted: sc; subcutaneous; read-out: mean A50, bombesin-induced scratching. The text has this: (Cowan A. Trendsin Pharmacology Science, 7:69-72, 1986) With this test the intracerebroventricular administration of bombesin produces a characteristic scratching response.

Another data set deals with tail flick response. Put plainly: radiant heat tail flick analgesia in rats. The class given is in vivo, rat. The note with it: for ED50: Rattus norvegicus; for dose producing approximately equal analgesia: tail flick, through 3.5 hr; for antagonism of tail-flick response to heat: rat. As to the method: The analgesic properties of the compounds prepared in accordance with Examples III and IV were evaluated in rats using the radiant heat and tail flick paradigm. […] Flick latencies in FIGS. 11-13 were determined at 30 minute intervals through 3.5 h and the data was expressed as a percentage of the maximum possible effect (% MPE). A 15 sec. cut-off latency was used to minimize tissue damage. The values shown are the mean values for 6 rats.
(§1) A 15 sec. cut-off latency was used to prevent tissue damage.
The analgesic properties of compounds XXII and XXIII were evaluated in rats using the writhing assay and tail flick paradigm. […] The writhing assay which uses a chemical stimulus to produce pain, is believed to be more sensitive to kappa agonist activity than other measures of analgesia which uses a heat stimulus (Dykstra, L.A. Behavioral Pharmacology: The Current Status, N.Y.: Allan R. Liss. Inc. 1985).

The nature of data set [2]: deaths of rats during tail flick experiment at high doses. The note with it: S.C.
From the text: as §1

The next data set concerns the target T1, mu-type opioid receptor (Rattus norvegicus, UniProt P33535).
T1 construct: using rat forebrain membranes; from tissue; host or cells: rat forebrain membranes
Nature of the data set: inhibition of specific [^3 H] DAGO binding to rat forebrain membranes. As to the method:
(§2) The interaction of some of the novel compounds with mu and delta-type opioid receptors present in brain membranes was examined in vitro. […] DAGO (mu-type receptor) or [^3 H] DADLE (delta-type receptor) was determined using rat forebrain membranes. Computer assisted analysis (EBDA) was used to determine apparent Ki values for the various compounds.
(§3) Values represent the MEAN±S.E.M. of the Ki(nM) for each compound to inhibit specific binding of the indicated ligand to rat brain membranes. The values are from two-five separate experiments and were calculated according to the method of Cheng and Prusoff [Biochem. Pharmacol. 1973, 22, 3099-3108] together with the EBDA Program. Numbers in parentheses are the mean Hill coefficients for each compound to inhibit ligand binding.
(§4) Values represent the MEAN±S.E.M. of the Ki(nM) for each compound to inhibit specific binding of the indicated ligand to rat brain membranes. The values are from two.div.seven separate experiments and were calculated according to the method of Cheng and Prusoff together with the EBDA program. Numbers in parentheses are the mean Hill coefficients for each compound to inhibit ligand binding. N.D.=not determined
(§5) The interaction of some of the novel compounds with mu, delta and kappa - type opioid receptors present in brain membranes was examined in vitro. […] DAGO (mu-type receptor), or [^3 H] DADLE (Delta-type receptor) using rat forebrain membranes and [^3 H] EKC (kappa-type receptor) using guiniea pig cerebellum membrane was determined. Computer assisted analysis (EBDA) was used to determine apparent Ki values for the various compounds.
(§6) The values represent the MEAN±S.E.M. of the Ki(nM) for each compound to inhibit specific binding of the indicated ligand. Each value represents the mean of three individual experiments performed on separate occasions.

In data set [3] the target is delta-type opioid receptor (Rattus norvegicus, UniProt P33533). Nature of the data set: inhibition of specific [^3 H] DADLE binding to rat forebrain membranes. As to the method: as §2, §3, §4, §5, §6
A further data set concerns writhing response. Put plainly: animal or person. The class given is in vivo, mouse. The note with it: for ED50: Mus musculus, Table 7, read-out: ED50, Acetic Acid Induced Writhing in the Mouse; for potency versus morphine to antagonize writhing response: mouse, in vivo, ip; for kappa selectivity and agonist activity: writhing and tail flick. A general note: An intraperitoneal irritant provokes the stretching counted in writhing tests.

Data set [4] addresses T2, kappa-type opioid receptor (Cavia porcellus, UniProt P41144).
T2 construct: using guiniea pig cerebellum membrane; from tissue; host or cells: guinea pig cerebellum membranes
Put plainly: inhibition of specific [^3 H] EKC binding to guinea pig cerebellum membrane. To be noted: for fold more potent to inhibit specific [3H]EKC: than other compounds or naltrexone. As for the experimental part:
as §5, §6

A short description of data set [5]: conditioned taste aversion in rats. The class given is in vivo, rat. To be noted: I.P., day 10. As to the method: The ability of a compound to inhibit feeding may not be related to its anorectic properties, but rather to the ability of that compound to produce a conditioned taste aversion. This possibility was tested in the following experiment. Animals were adapted to water deprivation by restricting their access to water to a single 30 min presentation occurring at the same time every day. Baseline water intakes were determined for 7 days until intakes had stabilized, and animals were assigned to treatment groups based on their intakes on the final baseline day. On the following day (day 8), all rats received a bottle of condensed milk (diluted 2:1 water:milk) in place of the water, and intakes were recorded for 30 min. Fifteen minutes after the milk was removed, rats were administered an I.P. injection of vehicles, LiCl (299.6 μmol/kg) or the compound of Example XII (1.15, 2.31, 11.55 and 23.09 μmol/kg). The compound of Example XII was dissolved in 0.3% acetic acid in a volume of 4 ml/kg. LiCl was dissolved in saline, and serves as a positive control, since it is a compound that reliably produces a strong conditioned taste aversion. This procedure was repeated on day 9. On day 10, all rats were given a two-bottle choice of water or the milk:water solution, and intakes were recorded for 30 min. Data for each experiment were analyzed by one-way ANOVA, and post-hoc comparisons were performed using Dunnett's test.
The effects of the compound of Example XII in producing a conditioned taste aversion are illustrated in FIGS. 28 and 29. In FIGS. 28 and 29 the data represent the mean ±SEM for each group. **=p<0.01 (Dunnett's test). Abbreviations: SAL, saline; AA, 0.3% acetic acid in distilled water; LiCl, lithium chloride. Doses of the compound of Example XII for each group are expressed in μmole/kg. The number of animals per group: SAL, 4: AA, LiCl and each dose of Example XII, 5. FIG. 28: Total milk intake in ml on day 10. FIG. 29: Preference ratio on day 10.

The conditions of data set [6]: 1 and 2 mg/kg; cited from earlier work.
For data set [7] the following is noted: Simone et al.; cited from earlier work.
[8] abbreviates: sc, 0.5 h, S.C., 30 min, read-out: ED50, tail flick analgesia.
[9] abbreviates: Ki, inhibition of specific [^3 H] DAGO binding, Tables 1 and 2, rat brain membranes, MEAN±S.E.M.
Setting [10] is: read-out: Ki, inhibition of specific [^3 H] DADLE binding, Tables 1 and 2, rat brain membranes, MEAN±S.E.M.
Setting [11] is: Table 7, read-out: ED50, Antagonism of the Tail-Flick Response in the Rat.
Setting [12] is: read-out: (Ki) nM, δ receptor (Rat Forebrain), Table 6, [^3 H] DADLE, mean of three experiments.

T2 sequence (P41144 whole entry): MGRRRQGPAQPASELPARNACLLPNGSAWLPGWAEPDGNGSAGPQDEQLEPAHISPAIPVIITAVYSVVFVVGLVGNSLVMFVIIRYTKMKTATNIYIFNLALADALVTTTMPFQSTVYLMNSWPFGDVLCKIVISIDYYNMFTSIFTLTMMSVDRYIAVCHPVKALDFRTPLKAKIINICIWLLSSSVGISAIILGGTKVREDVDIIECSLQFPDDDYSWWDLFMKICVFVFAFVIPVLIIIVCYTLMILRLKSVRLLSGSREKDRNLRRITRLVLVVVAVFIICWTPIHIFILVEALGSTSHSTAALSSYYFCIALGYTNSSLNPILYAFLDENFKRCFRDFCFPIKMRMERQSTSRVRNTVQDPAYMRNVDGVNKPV
Chain of delta-type opioid receptor (P33533 whole entry): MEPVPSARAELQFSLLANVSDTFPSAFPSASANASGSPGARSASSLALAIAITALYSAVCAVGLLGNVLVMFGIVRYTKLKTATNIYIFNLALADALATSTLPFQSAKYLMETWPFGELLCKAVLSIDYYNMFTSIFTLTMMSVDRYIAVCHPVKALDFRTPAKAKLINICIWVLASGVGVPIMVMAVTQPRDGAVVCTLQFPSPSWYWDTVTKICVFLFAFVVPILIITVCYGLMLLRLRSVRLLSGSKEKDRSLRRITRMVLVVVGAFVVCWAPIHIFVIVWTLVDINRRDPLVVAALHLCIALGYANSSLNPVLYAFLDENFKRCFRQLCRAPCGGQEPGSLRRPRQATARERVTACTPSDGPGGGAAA
T1 sequence (P33535 whole entry): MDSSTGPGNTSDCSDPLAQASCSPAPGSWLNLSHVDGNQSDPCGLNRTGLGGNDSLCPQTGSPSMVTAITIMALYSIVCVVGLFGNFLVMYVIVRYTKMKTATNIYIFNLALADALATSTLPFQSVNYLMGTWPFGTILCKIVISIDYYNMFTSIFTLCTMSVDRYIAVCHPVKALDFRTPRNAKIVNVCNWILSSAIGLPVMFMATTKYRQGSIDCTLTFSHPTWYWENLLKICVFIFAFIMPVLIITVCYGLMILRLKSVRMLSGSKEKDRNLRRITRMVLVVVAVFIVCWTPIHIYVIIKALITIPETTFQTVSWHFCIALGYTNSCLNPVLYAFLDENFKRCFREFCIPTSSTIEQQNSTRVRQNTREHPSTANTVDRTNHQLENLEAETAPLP

`Oc1ccc2c3c1O[C@H]1C(=NOCCCc4ccccc4)CC[C@@]4(O)[C@@H](C2)N(CC2CC2)CC[C@]314` [6[3-phenylpropyl] oximino naltrexone]: the ED50 in data set [1] was 0.08 mg/kg.

Consider `CN1CC[C@]23c4c5ccc(O)c4O[C@H]2C(=NOCc2ccccc2)CC[C@@]3(O)[C@H]1C5` [Example III, 6-Benzyloximino-17-methyl-4,5 α-epoxy-3, 14-dihydroxymorphinan], for which the ED50 in the data set with tail flick response (setting [8]) was found to be 0.64 µmol/kg. In the data set with tail flick response (S.C.), the “dose producing approximately equal analgesia” value was around 2.21 µmol/kg. Besides, the “number of deaths out of six rats” value in [2] (8.85 μmole/kg) stood at 1; in [2] (17.7 μmole/kg) it was 3; in data set [2] (26.6 μmole/kg), 3. In addition, the Ki on mu-type opioid receptor (setting [9]) stood at 1.58 ± 0.07 nM; in data set [3] (setting [10]), 2.8 ± 1.6 nM.

As for `CN1CC[C@]23c4c5ccc(O)c4O[C@H]2C(=NOc2ccccc2)CC[C@@]3(O)[C@H]1C5` [Example IV, 6-Phenyloximino-17-methyl-4,5 α-epoxy-3, 14-dihydroxymorphinan], in the data set with tail flick response (setting [8]), the ED50 is 0.18 µmol/kg. Also, in the data set with tail flick response (S.C.), the “dose producing approximately equal analgesia” value was around 1.12 µmol/kg. The entries for the “number of deaths out of six rats” value in [2] (4.48 μmole/kg), in data set [2] (8.95 μmole/kg) and in [2] (13.4 μmole/kg) were 1, 1 and 2, respectively. Moreover, the figures for the inhibitory constant (Ki) (at mu-type opioid receptor (setting [9]); in [3] (setting [10])) were 0.84 ± 0.09 nM and 0.91 ± 0.1 nM, respectively.

For `Oc1ccc2c3c1O[C@H]1C(=NOCCc4ccccc4)CC[C@@]4(O)[C@@H](C2)N(CC2CC2)CC[C@]314` [Example XXII, 6-[2-phenethyl]oximino-17-cyclopropylmethyl-4,5 α-epoxy-3,14-dihydroxymorphinan], the ED50 in the data set with tail flick response (setting [11]) stood at 4.02 mg/kg. Further, the “antagonism of tail-flick response to heat” value in the data set with tail flick response is “effectively antagonized the tail-flick response to a heat stimulus in the rat”. In addition, in the data set on writhing response, the ED50 was found to be 0.01 mg/kg; the “potency versus morphine to antagonize writhing response” value is reported as “more potent than morphine to antagonize the writhing response”; the “kappa selectivity and agonist activity” value was “selective to kappa receptors and possess kappa agonist activity”. In addition, in data set [4], the Ki amounted to 0.28 nM and the “fold more potent to inhibit specific [3H]EKC” value is given as 3 fold. At mu-type opioid receptor ((Ki) nM, μ receptor (Rat Forebrain), Table 6, [^3 H] DAGO, mean of three experiments), this compound returned an inhibitory constant (Ki) of 0.88 nM. Further, in data set [3] (setting [12]), the inhibition constant Ki is 0.6 nM.

Turning to `Oc1ccc2c3c1O[C@H]1C(=NOCCCc4ccccc4)CC[C@@]4(O)[C@@H](C2)N(CC2CC2)CC[C@]314` [Example XXIII], the ED50 with tail flick response (setting [11]) was found to be 1.84 mg/kg. In addition, the “antagonism of tail-flick response to heat” value in the data set on tail flick response was “effectively antagonized the tail-flick response to a heat stimulus in the rat”. Further, in the data set with writhing response, the ED50 is 0.02 mg/kg; the “potency versus morphine to antagonize writhing response” value is recorded as “more potent than morphine to antagonize the writhing response”; the “kappa selectivity and agonist activity” value was “selective to kappa receptors and possess kappa agonist activity”. Further, the “fold more potent to inhibit specific [3H]EKC” value in data set [4] was 100 fold. In addition, the Ki on mu-type opioid receptor (read-out: (Ki) nM, μ receptor (Rat Forebrain), Table 6, [^3 H] DAGO, mean of three experiments) turned out to be 0.32 nM. Further, in data set [3] (setting [12]), the Ki was found to be 0.44 nM.

For `[Cl-].[Li+]` [LiCl, lithium chloride, reference compound], the “conditioned taste aversion (milk intake, preference ratio)” value in data set [5] is “significant decreases in milk intake and in the preference ratio were evident only for LiCl”.

`COC(=O)CON=C1CC[C@@]2(O)[C@H]3Cc4ccc(OC)c5c4[C@@]2(CCN3CC2CC2)[C@H]1O5` [N-cyclopropylmethyl-nor-14-hydroxydihydrocodeinone-6-carboxymethyl methyl ester]: the “suppression of symptoms in morphine dependent monkeys” value in data set [6] is reported as “partial suppression of symptoms was obtained”.

Consider `C=CCN1CC[C@]23c4c5ccc(O)c4O[C@H]2/C(=N/N=C2\CC[C@@]4(O)[C@H]6Cc7ccc(O)c8c7[C@@]4(CCN6CC=C)[C@H]2O8)CC[C@@]3(O)[C@H]1C5` [naloxonazine], for which the “inhibition of overnight feeding” value in data set [7] was “inhibition of overnight feeding”.

In general, Ki refers to a dissociation constant, usually derived from enzyme kinetics or from competition with a known ligand.
